# Patent publication US20230165970A1, “COMPOSITIONS AND METHODS FOR THE TREATMENT OF BACTERIAL INFECTIONS” (priority 2017, published 2023)
# *1 amine or outer side, *2 acyl side, *3 side chain or, on linkers, in order; H or OH if unused. Where a SMILES comes first, the peptide text is derived from it. Bridges are numbered along the chain shown (N, C = ends). Roman numbers before positions name the chains, in order. [ ]: non-standard residue; d: D form. The star is where a group is joined. X5 = C#CCOCCOCCOCCOCCN1C[C@@H](C(=O)[*:1])[C@H](C(=O)[*:2])C1; X2 = O=C([C@@H](N[*:1])[C@H](O)CCC(F)(F)F)[*:2]; Propargyl(OCH2CH2)4CO = C#CCOCCOCCOCCOCCC(=O)*; X3 = CCCCC[C@@H](O)[C@H](N[*:1])C(=O)[*:2]; azaDab = NCCN(N[*:1])C(=O)[*:2]; Aoc(2) = CCCCCC[C@H](N)C(=O)O; hLeu = CC(C)CC[C@H](N)C(=O)O; Nle = CCCC[C@H](N)C(=O)O; Dab = NCC[C@H](N)C(=O)O; azaGly = NNC(=O)O
# Legend:
# [1] = system: A. baumannii AB5075; test: Murine pneumonia model vs. A. baumannii AB5075 (survival); format: in vivo, C57BI/6J mice; settings: 1×10^8 CFU; for protection against lethal challenge (survival monitored 5 days): 5 mg/kg IV twice at t=+1 h and +4 h, n=5 (FIG. 118)
# Procedure: (§1) The murine pneumonia model was adapted from Lin et al., 2015 (PMID: 26288841). A. baumannii AB5075 was grown to log-phase in LB at 37° C., 200 rpm shaking. Bacteria were washed once with PBS via centrifugation at 4,000 rpm. Bacteria were adjusted to the desired concentration in PBS.
# Prior to infection, 8-week-old female C57BI/6J mice (Jackson Labs) were anesthetized with 100 mg/kg ketamine and 10 mg/kg xylazine. Using an otoscope, mice were infected non-invasively directly into the trachea.
# Mice were infected with 5×10^7 CFU in 30 μL of PBS. Mice were treated intraperitoneally with different doses of conjugate 23 or hIgG1 (50 mpk) at t=−12 h pre-infection and t=+1 h post-infection or with colistin (10 mpk) or PBS at t=+1 h, 5 h, 24 h, 36 h, 48 h and 60 h post-infection.
# Survival of mice (n=5 per group) was monitored for 5 days. […] Colistin was used as positive control resulting in 80% protection.
# as §1, with “PBS. Prior to infection, 8-week-old female C57BI/6J mice (Jackson Labs) were anesthetized with 100 mg/kg ketamine and 10 mg/kg xylazine. Using an otoscope, mice were infected non-invasively directly into the trachea.” for “PBS.”
# Mice were infected with 5×10^7 CFU in 30 μL of PBS. Mice were treated intraperitoneally with conjugate 34 or hIgG1 (50 mpk) at t=−12 h pre-infection.
# Survival of mice (n=4 per group) was monitored for 5 days. A single dose of ADC conjugate 34 was protective (75% survival) against a lethal challenge with A. baumannii AB5075.
# The murine pneumonia model was adapted from Lin et al., 2015 (PMID: 26288841). A. baumannii AB5075 was grown to log-phase in LB at 37° C., 200 rpm shaking. Bacteria were washed once with PBS via centrifugation at 4,000 rpm. Bacteria were adjusted to desired concentration in PBS. […]
# The survival (n=5 per group) was monitored twice daily for 5 days. […]
# [2] = system: Ab 19606 (COLhet^R); format: cell-based, Acinetobacter baumannii; settings: media CA-MHB
# [3] = system: Sa RN; format: cell-based
# [4] = system: A. baumannii AB5075; test: Lethal A. baumannii lung infection (mouse pneumonia) model, survival; format: in vivo, Acinetobacter baumannii; settings: mouse pneumonia model vs. AB5075; 5 mg/kg, twice intravenously, t=+1 h and +4 h; n=5
# [5] = system: Ab AB58705 (COL^R) IpxD, mut. (no LPS); format: cell-based, Acinetobacter baumannii; settings: media CA-MHB
Compound,protection against lethal challenge (survival monitored 5 days) [1],MIC [2] [µg/mL],MIC [3] [µg/mL],"protection (survival over 5 days), FIG. 118 [4] [%]",MIC [5] [µg/mL],"survival (monitored 5 days) ([1]; 10 mg/kg IV twice at t=+1 h and +4 h, n=5 (FIG. 119)) [%]","protection (survival over 5 days), FIG. 119 [4] [%]"
C#CCOCCOCCOCCOCCC(=O)N[C@@H](CCC(C)C)C(=O)N[C@@H](CCN)C(=O)N[C@H](C(=O)NNC(=O)N[C@H]1CCNC(=O)[C@H]([C@@H](C)O)NC(=O)[C@H](CCN)NC(=O)[C@H](CCN)NC(=O)[C@H](CC(C)C)NC(=O)[C@@H](Cc2ccccc2)NC(=O)[C@H](CCN)NC1=O)[C@H](O)CCCCC [Int-116] ({Propargyl(OCH2CH2)4CO}-[hLeu][Dab][X3][azaGly][Dab][Dab][dF]L[Dab][Dab]T; lactam 5-C),fully protective,1,>128,100,64,–,–
C#CCOCCOCCOCCOCCC(=O)N[C@@H](CCCCCC)C(=O)N[C@@H](CCN)C(=O)N[C@H](C(=O)N[C@@H](CCN)C(=O)N[C@H]1CCNC(=O)[C@H]([C@@H](C)O)NC(=O)[C@H](CCN)NC(=O)[C@H](CCN)NC(=O)[C@H](CC(C)C)NC(=O)[C@@H](Cc2ccccc2)NC(=O)[C@H](CCN)NC1=O)[C@H](O)CCC(F)(F)F [Int-118] ({Propargyl(OCH2CH2)4CO}-[Aoc(2)][Dab][X2][Dab][Dab][Dab][dF]L[Dab][Dab]T; lactam 5-C),40%,–,>128,40,–,–,–
"C#CCOCCOCCOCCOCCN1C[C@@H](C(=O)N[C@@H](CCCC)C(=O)N[C@@H](CCN)C(=O)N[C@H](C(=O)NNC(=O)N[C@H]2CCNC(=O)[C@H]([C@@H](C)O)NC(=O)[C@H](CCN)NC(=O)[C@H](CCN)NC(=O)[C@H](CC(C)C)NC(=O)[C@@H](Cc3ccccc3)NC(=O)[C@H](CCN)NC2=O)[C@@H](C)O)[C@H](C(=O)N[C@@H](CCCC)C(=O)N[C@@H](CCN)C(=O)N[C@H](C(=O)NNC(=O)N[C@H]2CCNC(=O)[C@H]([C@@H](C)O)NC(=O)[C@H](CCN)NC(=O)[C@H](CCN)NC(=O)[C@H](CC(C)C)NC(=O)[C@@H](Cc3ccccc3)NC(=O)[C@H](CCN)NC2=O)[C@@H](C)O)C1 [Int-120] (I: [Nle][Dab]T[azaGly][Dab][Dab][dF]L[Dab][Dab]T / II: [Nle][Dab]T[azaGly][Dab][Dab][dF]L[Dab][Dab]T; lactam I:5-I:C, II:5-II:C; linker I:N-II:N via X5)",–,2,>128,–,4,–,–
C#CCOCCOCCOCCOCCC(=O)N[C@@H](CCC(C)C)C(=O)N[C@@H](CCN)C(=O)N[C@H](C(=O)NN(CCN)C(=O)N[C@H]1CCNC(=O)[C@H]([C@@H](C)O)NC(=O)[C@H](CCN)NC(=O)[C@H](CCN)NC(=O)[C@H](CC(C)C)NC(=O)[C@@H](Cc2ccccc2)NC(=O)[C@H](CCN)NC1=O)[C@@H](C)O [Int-127] ({Propargyl(OCH2CH2)4CO}-[hLeu][Dab]T[azaDab][Dab][Dab][dF]L[Dab][Dab]T; lactam 5-C),–,2,>128,–,64,–,–
C#CCOCCOCCOCCOCCC(=O)N[C@@H](CCCCCC)C(=O)N[C@@H](CCN)C(=O)N[C@H](C(=O)NN(CCN)C(=O)N[C@H]1CCNC(=O)[C@H]([C@@H](C)O)NC(=O)[C@H](CCN)NC(=O)[C@H](CCN)NC(=O)[C@H](CC(C)C)NC(=O)[C@@H](Cc2ccccc2)NC(=O)[C@H](CCN)NC1=O)[C@@H](C)O [Int-129] ({Propargyl(OCH2CH2)4CO}-[Aoc(2)][Dab]T[azaDab][Dab][Dab][dF]L[Dab][Dab]T; lactam 5-C),–,–,>128,–,–,60,60
